Test results taken from ChEMBL document CHEMBL5046254, “Mycobactin Analogues with Excellent Pharmacokinetic Profile Demonstrate Potent Antitubercular Specific Activity and Exceptional Efflux Pump Inhibition” (J Med Chem, 2022).
Converted amounts (≈) assume the structure as drawn.

What was measured:
[1] = tested on: Mycobacterium tuberculosis; test: microbe, parasite or virus in culture; conditions: H37Rv ATCC 27294, 192 h
[2] = tested on: Mycolicibacterium smegmatis; test: Antitubercular activity against Mycobacterium smegmatis mc2155 ATCC 700084 cultured in GAST media incubated for 24 hrs by resazurin microtiter assay; assay type: functional
[3] = tested on: Mycolicibacterium smegmatis; test: Antitubercular activity against Mycobacterium smegmatis mc2155 ATCC 700084 cultured in GAST-Fe media incubated for 24 hrs by resazurin microtiter assay; assay type: functional
[4] = tested on: Mycobacterium tuberculosis; test: microbe, parasite or virus in culture; conditions: H37Rv ATCC 27294, 192 h; remark: listed apart in the source
Mycolicibacterium aurum [5] = test: Antimycobacterial activity against Mycobacterium aurum ATCC 10437 cultured in GAST media incubated for 72 hrs by resazurin microtiter assay; assay type: functional
Mycolicibacterium aurum [6] = test: Antimycobacterial activity against Mycobacterium aurum ATCC 10437 cultured in GAST-Fe media incubated for 72 hrs by resazurin microtiter assay; assay type: functional

Structure (SMILES) | MIC90 [1] | MIC90 [2] | MIC90 [3] | MIC90 [4] | MIC90 (Mycolicibacterium aurum [5]) | MIC90 (Mycolicibacterium aurum [6])
CC(=O)N1N=C(c2ccccc2O)CC1c1cccc(F)c1 (stereo not drawn) | 256 µg/mL (≈ 858 µM) | 128 µg/mL (≈ 429 µM) | 128 µg/mL (≈ 429 µM) | 64 µg/mL (≈ 215 µM) |  | 
NC(=S)N1N=C(c2ccccc2O)CC1c1ccccc1F (stereo not drawn) | 32 µg/mL (≈ 101 µM) | 128 µg/mL (≈ 406 µM) | 128 µg/mL (≈ 406 µM) | 16 µg/mL (≈ 50.7 µM) |  | 
Oc1ccccc1C1=NNC(c2ccccc2F)C1 (stereo not drawn) | 64 µg/mL (≈ 250 µM) | 8 µg/mL (≈ 31.2 µM) | 64 µg/mL (≈ 250 µM) | 16 µg/mL (≈ 62.4 µM) |  | 
CC(=O)N1N=C(c2ccccc2O)CC1c1ccccc1Br (stereo not drawn) | > 256 µg/mL | > 256 µg/mL | > 256 µg/mL | > 256 µg/mL |  | 
NC(=S)N1N=C(c2ccccc2O)CC1c1cccc(Cl)c1 (stereo not drawn) | 32 µg/mL (≈ 96.4 µM) | 256 µg/mL (≈ 771 µM) | 256 µg/mL (≈ 771 µM) | 16 µg/mL (≈ 48.2 µM) |  | 
CC(=O)N1N=C(c2ccccc2O)CC1c1ccccc1 (stereo not drawn) | > 256 µg/mL | > 256 µg/mL | > 256 µg/mL | > 256 µg/mL |  | 
COc1ccccc1C1CC(c2ccccc2O)=NN1C(N)=S (stereo not drawn) | 16 µg/mL (≈ 48.9 µM) | 256 µg/mL (≈ 782 µM) | 256 µg/mL (≈ 782 µM) | 16 µg/mL (≈ 48.9 µM) |  | 
Cc1ccc(C2CC(c3ccccc3O)=NN2C(N)=S)cc1 (stereo not drawn) | 8 µg/mL (≈ 25.7 µM) | 128 µg/mL (≈ 411 µM) | > 256 µg/mL | 8 µg/mL (≈ 25.7 µM) |  | 
COc1ccc(C2CC(c3ccccc3O)=NN2C(C)=O)cc1O (stereo not drawn) | > 256 µg/mL | > 256 µg/mL | > 256 µg/mL | > 256 µg/mL |  | 
CC(=O)N1N=C(c2ccccc2O)CC1c1ccccc1Cl (stereo not drawn) | > 256 µg/mL | > 256 µg/mL | 256 µg/mL (≈ 813 µM) | > 256 µg/mL |  | 
NC(=S)N1N=C(c2ccccc2O)CC1c1cccc(O)c1 (stereo not drawn) | 128 µg/mL (≈ 408 µM) | 128 µg/mL (≈ 408 µM) | 256 µg/mL (≈ 817 µM) | 16 µg/mL (≈ 51.1 µM) |  | 
Oc1ccccc1C1=NNC(c2ccccc2Cl)C1 (stereo not drawn) | 32 µg/mL (≈ 117 µM) | 8 µg/mL (≈ 29.3 µM) | 64 µg/mL (≈ 235 µM) | 16 µg/mL (≈ 58.7 µM) |  | 
CC(=O)N1N=C(c2ccccc2O)CC1c1ccccc1F (stereo not drawn) | > 256 µg/mL | 256 µg/mL (≈ 858 µM) | 256 µg/mL (≈ 858 µM) | > 256 µg/mL |  | 
CC(=O)N1N=C(c2ccccc2O)CC1c1ccccc1C (stereo not drawn) | > 256 µg/mL | > 256 µg/mL | 256 µg/mL (≈ 870 µM) | > 256 µg/mL |  | 
COc1ccc(C2CC(c3ccccc3O)=NN2C(N)=S)cc1O (stereo not drawn) | 16 µg/mL (≈ 46.6 µM) | 128 µg/mL (≈ 373 µM) | 128 µg/mL (≈ 373 µM) | 8 µg/mL (≈ 23.3 µM) |  | 
CC(=O)N1N=C(c2ccccc2O)CC1c1ccc(O)cc1 (stereo not drawn) | > 256 µg/mL | > 256 µg/mL | > 256 µg/mL | > 256 µg/mL |  | 
Oc1ccccc1C1=NNC(c2ccccc2Br)C1 (stereo not drawn) | 32 µg/mL (≈ 101 µM) | 8 µg/mL (≈ 25.2 µM) | 64 µg/mL (≈ 202 µM) | 16 µg/mL (≈ 50.4 µM) |  | 
COc1ccc(C2CC(c3ccccc3O)=NN2C(C)=O)cc1 (stereo not drawn) | > 256 µg/mL | > 256 µg/mL | > 256 µg/mL | > 256 µg/mL |  | 
Oc1ccccc1C1=NNC(c2ccccc2)C1 (stereo not drawn) | 128 µg/mL (≈ 537 µM) | 64 µg/mL (≈ 269 µM) | 128 µg/mL (≈ 537 µM) | 32 µg/mL (≈ 134 µM) |  | 
CC(=O)N1N=C(c2ccccc2O)CC1c1cccc(Cl)c1 (stereo not drawn) | 256 µg/mL (≈ 813 µM) | 128 µg/mL (≈ 407 µM) | 128 µg/mL (≈ 407 µM) | 256 µg/mL (≈ 813 µM) |  | 
COc1ccccc1C1CC(c2ccccc2O)=NN1 (stereo not drawn) | 256 µg/mL (≈ 954 µM) | 64 µg/mL (≈ 239 µM) | 128 µg/mL (≈ 477 µM) | 32 µg/mL (≈ 119 µM) |  | 
COc1cccc(C2CC(c3ccccc3O)=NN2C(N)=S)c1 (stereo not drawn) | 64 µg/mL (≈ 195 µM) | > 256 µg/mL | 256 µg/mL (≈ 782 µM) | 32 µg/mL (≈ 97.7 µM) |  | 
NC(=S)N1N=C(c2ccccc2O)CC1c1ccc(O)cc1 (stereo not drawn) | 256 µg/mL (≈ 817 µM) | 256 µg/mL (≈ 817 µM) | > 256 µg/mL | 64 µg/mL (≈ 204 µM) | 64 µg/mL (≈ 204 µM) | 128 µg/mL (≈ 408 µM)
CC(=O)N1N=C(c2ccccc2O)CC1c1ccc(F)cc1 (stereo not drawn) | 256 µg/mL (≈ 858 µM) | 128 µg/mL (≈ 429 µM) | 128 µg/mL (≈ 429 µM) | 128 µg/mL (≈ 429 µM) |  | 
